Measured values as given in PubChem BioAssay (NCI).
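How tested: cells in 96-well plates exposed to compound for 48 hours at five concentrations. GI50 marks 50% less growth. TGI: concentration producing complete growth inhibition.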

Experiments:
Test in all cases: NCI anticancer screen, dose series, 48 h
TK-10 renal = system: TK-10 renal
UACC-257 melanoma = system: UACC-257 melanoma
CAKI-1 renal = system: CAKI-1 renal
MALME-3M melanoma = system: MALME-3M melanoma
SK-MEL-2 melanoma = system: SK-MEL-2 melanoma
KM12 colon = system: KM12 colon
MOLT-4 leukemia = system: MOLT-4 leukemia
UACC-62 melanoma = system: UACC-62 melanoma
NCI/ADR-RES ovarian = system: NCI/ADR-RES ovarian
MDA-MB-231 breast = system: MDA-MB-231 breast

| Structure (SMILES) | TGI (TK-10 renal) [µM] | TGI (UACC-257 melanoma) [µM] | TGI (CAKI-1 renal) [µM] | TGI (MALME-3M melanoma) [µM] | TGI (SK-MEL-2 melanoma) [µM] | TGI (KM12 colon) [µM] | TGI (MOLT-4 leukemia) [µM] | TGI (UACC-62 melanoma) [µM] | GI50 (TK-10 renal) [µM] | GI50 (UACC-257 melanoma) [µM] | GI50 (NCI/ADR-RES ovarian) [µM] | TGI (NCI/ADR-RES ovarian) [µM] | GI50 (CAKI-1 renal) [µM] | GI50 (SK-MEL-2 melanoma) [µM] | GI50 (KM12 colon) [µM] | GI50 (MDA-MB-231 breast) [µM] | TGI (MDA-MB-231 breast) [µM] | GI50 (MOLT-4 leukemia) [µM] | GI50 (UACC-62 melanoma) [µM] | GI50 (MALME-3M melanoma) [µM] |
| --- | --- | --- | --- | --- | --- | --- | --- | --- | --- | --- | --- | --- | --- | --- | --- | --- | --- | --- | --- | --- |
| Cc1ccc(S(=O)c2ccccc2[N+](=O)[O-])cc1 (configuration not stated) | > 100 | > 100 | > 100 | > 100 | > 100 | > 100 | > 100 | > 100 | – | – | – | – | – | – | – | – | – | – | – | – |
| CC(C)(CN1CCCCC1)C(=O)/C=C/c1ccccc1 | 30.5 | 46.8 | 48 | 30.3 | 28.9 | 28.9 | 41.4 | 53.2 | – | – | – | – | – | – | – | – | – | – | – | – |
| O=C(O)c1ccc(N(/C=C/C(=O)C(F)(F)F)Cc2ccc(Cl)cc2)cc1 | 60.8 | 86.8 | > 100 | – | 53.3 | 59.9 | > 100 | 66.3 | 27 | 30.7 | 23 | 68.4 | 34.6 | 19.1 | 23.2 | 18.6 | 48.2 | 34.8 | 24 | – |
| O=c1[nH]c2ccccc2n1C1CCNCC1 | > 100 | > 100 | > 100 | – | > 100 | > 100 | > 100 | > 100 | > 100 | > 100 | > 100 | > 100 | > 100 | > 100 | > 100 | > 100 | > 100 | > 100 | > 100 | – |
| Cc1cc(N(CCC#N)CCC#N)ccc1/C=C(\NC(=O)/C=C/c1ccccc1)C(=O)N=[N+]=[N-] | > 100 | > 100 | > 100 | > 100 | > 100 | – | > 100 | > 100 | – | – | – | – | – | – | – | – | – | – | – | – |
| CN(C)CCC(N)(P(=O)([O-])[O-])P(=O)([O-])[O-].N.N.[Pt+2] | > 100 | > 100 | > 100 | > 100 | > 100 | > 100 | > 100 | > 100 | > 100 | > 100 | – | – | > 100 | > 100 | > 100 | – | – | > 100 | > 100 | > 100 |
| CC(=O)OC(C)(C)C1CC[C@]2(C)/C=C/C(C)C[C@@H](O)/C=C(\C)CC(O)C12 (some centres not stated) | > 100 | > 100 | > 100 | > 100 | > 100 | > 100 | > 100 | > 100 | – | – | – | – | – | – | – | – | – | – | – | – |
| C/C(=N/NC(=O)c1ccccc1S(N)(=O)=O)C(CN1CCCCC1)C(C1=C(O)C2C=CC=CC2OC1=O)c1ccccc1 (configuration not stated) | > 100 | > 100 | > 100 | > 100 | > 100 | > 100 | – | > 100 | – | – | – | – | – | – | – | – | – | – | – | – |
| CCN(CC)CC(=O)NC1c2ccccc2Oc2ccccc21 | > 100 | > 100 | – | – | – | – | > 100 | > 100 | – | – | – | – | – | – | – | – | – | – | – | – |
| Cc1c(C(Cc2ccccc2N(C)C(=O)/C=C\C(=O)O)c2c[nH]c3ccccc23)c2ccccc2n1C (configuration not stated) | 33.8 | 31.5 | 36 | 22.4 | – | 29.1 | 53.8 | 34.1 | – | – | – | – | – | – | – | – | – | – | – | – |
| C[C@@H]1C(=O)CC2C(C)(C)CCC[C@]2(C)[C@@]12CC[C@]1(C=COC1)O2 (some centres not stated) | – | – | > 100 | 79.5 | 44.3 | > 100 | 42.9 | > 100 | – | – | – | – | – | – | – | – | – | – | – | – |
| O=S(=O)(NCCCNc1cc(-c2cn(-c3ccccc3)nc2-c2cccc(O)c2)ccn1)c1ccc(C(F)(F)F)cc1 | 9.84 | – | 7.81 | – | 3.63 | 4.49 | 5.36 | 3.17 | 3.32 | – | 2.45 | 7.13 | 2.08 | 1.88 | 1.89 | – | – | 1.83 | 1.53 | – |
| O=C(/C=C/c1ccccc1)NC1C=Nc2ccc([N+](=O)[O-])cc2NC1=O (configuration not stated) | > 100 | > 100 | > 100 | > 100 | > 100 | 86.7 | > 100 | > 100 | – | – | – | – | – | – | – | – | – | – | – | – |
| NC1=C(O)c2cccc3cccc(c23)C1=O | > 100 | > 100 | > 100 | > 100 | > 100 | > 100 | > 100 | > 100 | – | – | – | – | – | – | – | – | – | – | – | – |
| O=C(O)/C=C/c1ccc(O)c(O)c1 | > 100 | > 100 | > 100 | > 100 | > 100 | > 100 | > 100 | > 100 | – | – | – | – | – | – | – | – | – | – | – | – |
| COC(=O)C(=O)C(C#N)c1nc2ccccc2s1 (configuration not stated) | > 100 | > 100 | > 100 | > 100 | > 100 | – | > 100 | > 100 | – | – | – | – | – | – | – | – | – | – | – | – |
